# In patent US20110065672A1, “BISPHOSPHONATE-PROSTATIC ACID PHOSPHATASE INHIBITOR CONJUGATES TO TREAT PROSTATE CANCER BONE METASTASIS” (MOUNT SINAI SCHOOL OF MEDICINE OF NEW YORK UNIVERSITY, priority 2009, published 2011):
# Legend:
# [1] = target: T1, prostatic acid phosphatase (PAP) (Homo sapiens, UniProt P15309); assay: PAP secretion in VCaP cell culture with conjugates, ELISA; type: cell-based; settings: overnight; for inhibition of PAP secretion: 0.1 mM or 1.0 mM in VCaP cell culture medium
# T1 construct: endogenous in cells; host or cells: VCaP (human prostate cancer cell line); in A3 also MC3T3 pre-osteoblasts, alone or in co-culture
# T1 sequence (P15309 33-386): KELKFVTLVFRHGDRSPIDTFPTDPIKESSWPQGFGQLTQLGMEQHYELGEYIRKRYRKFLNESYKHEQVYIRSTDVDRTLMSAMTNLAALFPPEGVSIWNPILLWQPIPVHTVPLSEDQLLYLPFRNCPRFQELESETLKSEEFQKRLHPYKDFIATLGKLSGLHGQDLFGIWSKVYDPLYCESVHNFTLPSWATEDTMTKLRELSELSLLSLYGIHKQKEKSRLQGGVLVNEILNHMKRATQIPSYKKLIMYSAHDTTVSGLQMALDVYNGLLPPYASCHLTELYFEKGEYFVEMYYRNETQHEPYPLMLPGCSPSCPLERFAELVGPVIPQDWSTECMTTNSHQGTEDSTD
# Description: Either the glyceric acid conjugate (i.e., N-Alendronyl-D-Glyceramide) (example 1, 0.1 mM or 1.0 mM) or the tartaric acid conjugate (i.e., N-Alendronyl-L-Tartaric Acid Monamide) (example 2, 0.1 mM or 1.0 mM) was added to VCaP cell culture medium, and incubated overnight. PAP secretion was measured using an ELISA assay.
# RAW cells [2] = assay: RAW pre-osteoclast cell growth in co-culture experiments, hemacytometer; type: cell-based; settings: tartrate (2004) for 2 days
# Description: (§1) In order to determine the effects of prostatic acid phosphatase (PAP) on osteoclast differentiation and activity, a series of co-culture experiments were performed in which pre-osteoclast cells (RAW cells) were co-cultured with either PAP-positive (PAP^+), VCaP cells or PAP-negative (PAP^−) (PC3) human prostate cancer (PCa) cells. RAW cells were counted in a hemacytometer on day 5.
# (§2) VCaP (PAP^+) and PC3 (PAP^−) cells (5×10^4 each) were seeded on inserts in RPMI or DMEM medium with 10% FBS. Pre-osteoclast, PRAW cells (5×10^4) were plated on the bottom in 12 well plates. After 2 days, medium was changed to serum-free DMEM with 0.1% BSA+/− tartrate (2004) for 2 days. Mean number of multinucleated cells (hallmark of osteoclast differentiation) was determined on day 5 by multiple field counts in 200× objective view.
# PAP = target: T2, PAP (Homo sapiens, UniProt P15309); settings: see U.S. Pat. No. 5,763,490; cited from earlier work
# T2 sequence (P15309 33-386): T1 sequence (P15309 33-386)
# RAW (osteoclast) cells = assay: Osteoclast bone-resorbing activity, pit formation on osteologic discs; type: cell-based; settings: tartrate 20 μM, 7 days, RANKL and MCSF
# Description: The effect of PAP on osteoclast bone-resorbing activity was measured by assaying pit formation when osteoclasts were cultured on bone matrix (osteologic discs). RAW (osteoclast) cells (2×10^4 cells), PC3 (PAP^−) cells (2×10^4 cells), and VCaP (PAP^+) cells (3×10^4 cells) were plated, alone or in combination, on calcium hydroxyapatite-coated osteologic discs in DMEM medium with 10% FBS for 7 days+/−tartrate (20 μM). All cultures were treated with RANKL ([…]) and MCSF ([…]). On day 7, cells were washed and discs stained with von Kossa to visualize the calcium matrix and pits (which indicate bone resorption by the RAW osteoclast cells).
# bone acid phosphatase = target: T3, bone acid phosphatase (Homo sapiens, UniProt P13686); settings: cited from earlier work
# T3 sequence (P13686 22-325): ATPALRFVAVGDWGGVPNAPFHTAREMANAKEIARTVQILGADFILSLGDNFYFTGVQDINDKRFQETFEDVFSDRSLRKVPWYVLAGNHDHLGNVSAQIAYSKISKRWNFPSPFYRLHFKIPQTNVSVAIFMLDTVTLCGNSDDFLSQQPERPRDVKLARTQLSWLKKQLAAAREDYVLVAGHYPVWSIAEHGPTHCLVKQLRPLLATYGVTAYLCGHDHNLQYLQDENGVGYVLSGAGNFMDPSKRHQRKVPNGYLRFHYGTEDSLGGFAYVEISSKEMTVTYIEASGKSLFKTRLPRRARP
# [3] = tested on: prostatic acid phosphatase (PAP); assay: Secretion of PAP from MC3T3 and VCaP single line and co-cultures, ELISA; type: cell-based, human; settings: tartrate 20 μM, 7 days, MC3T3 cells (very low PAP levels)
# Description: (§3) The human prostate cancer cell line VCaP (originally derived from a vertebral metastases) and the pre-osteoblast cell line MC3T3, were used to for in vitro studies with tartrate. Each cell culture was grown in serum free medium either in single line or co-culture, and treated with or without tartrate (20 μM) for 7 days. Cell numbers were counted by a hemacytometer and the secretion of PAP and bone alkaline phosphatase (ALP) was measured using ELISA.
# [4] = target: T1, prostatic acid phosphatase (PAP); assay: as above; type: cell-based; settings: tartrate 20 μM, 7 days
# Description: as §3
# MC3T3 cells = assay: Growth of MC3T3 pre-osteoblast cells, single line or co-culture, counted by hemacytometer; type: cell-based; settings: tartrate 20 μM, 7 days, serum free medium
# Description: as §3
# VCaP cells = assay: Growth of VCaP prostate cancer cells, single line or co-culture, counted by hemacytometer; type: cell-based, human; settings: tartrate 20 μM, 7 days, serum free medium
# Description: as §3
# [5] = tested on: bone alkaline phosphatase (ALP); assay: Secretion of bone alkaline phosphatase (ALP), ELISA; type: cell-based; settings: tartrate 20 μM, 7 days
# Description: as §3
# Secretion of bone alkaline phosphatase (ALP) by pre-osteoblast cells is correlated with pre-osteoblast differentiation into mature osteoblasts cells. Accordingly, ALP secretion was measured to indirectly determine whether the inhibition of PAP secretion by tartrate also served to attenuate differentiation events. […] This effect was not seen in the single line MC3T3 and VCaP cell cultures.
# RAW cells [6] = assay: RAW cell differentiation, mean number of multinucleated cells; type: cell-based; settings: tartrate (2004) for 2 days
# Description: as §1, §2
smiles,measurement,setting,value
"O=C(O)C(O)[C@H](O)C(=O)NCCCC(O)(P(=O)(O)O)P(=O)(O)O (stereo partly drawn) [example 2, N-Alendronyl-L-Tartaric Acid Monamide]",inhibition of PAP secretion,[1],inhibit PAP secretion
"O=C(O)[C@H](O)[C@@H](O)C(=O)O [tartrate, L-tartrate]",effect on growth of RAW cells co-cultured with PC3 cells,"RAW cells [2]; counted day 5, co-culture with PC3 (PAP-)",did not have a significant effect
same,effect on growth of RAW cells co-cultured with VCaP cells,"RAW cells [2]; counted day 5, co-culture with VCaP (PAP+), p<0.01",significantly inhibited
same,effect on growth of RAW cells alone,"RAW cells [2]; serum-free DMEM with 0.1% BSA, counted day 5, RAW alone",did not have a significant effect
same,inhibition of PAP,PAP,inhibited
same,"decrease of pit formation, RAW cells co-cultured with VCaP",RAW (osteoclast) cells,50%
same,"effect on number of pits, RAW cells co-cultured with PC3 cells",RAW (osteoclast) cells,no significant effect
same,inhibition of bone acid phosphatase,bone acid phosphatase,is not
same,PAP secretion by MC3T3 cells,[3],did not inhibit
same,prostatic acid phosphatase secretion by VCaP cells grown alone,[4]; VCaP alone,significantly inhibited
same,prostatic acid phosphatase secretion by VCaP cells in co-culture with MC3T3 cells,[4]; co-culture with MC3T3,significantly inhibited
same,effect on growth of MC3T3 cells co-cultured with VCaP cells,"MC3T3 cells; co-culture with VCaP, p<0.01",significantly inhibited
same,effect on growth of MC3T3 single line cell culture,MC3T3 cells; single line,did not have a significant effect
same,effect on VCaP cell growth when co-cultured with MC3T3 cells,VCaP cells; co-culture with MC3T3,did not have a significant effect
same,effect on growth of VCaP single line cell culture,VCaP cells; single line,did not have a significant effect
same,bone alkaline phosphatase secretion by MC3T3 cells in co-culture with VCaP cells,[5]; co-culture with VCaP,significantly inhibited
same,"bone alkaline phosphatase secretion, single line MC3T3 cell culture",[5]; single line MC3T3,not seen
same,"bone alkaline phosphatase secretion, single line VCaP cell culture",[5]; single line VCaP,not seen
same,effect on differentiation of RAW cells alone,"RAW cells [6]; multinucleated cells on day 5, RAW alone",did not have a significant effect
same,effect on differentiation of RAW cells co-cultured with PC3 cells,"RAW cells [6]; multinucleated cells on day 5, co-culture with PC3",did not have a significant effect
same,effect on RAW cell differentiation when co-cultured with VCaP,"RAW cells [6]; multinucleated cells on day 5, co-culture with VCaP, p<0.01",significantly inhibited
"O=C(NCCCC(O)(P(=O)(O)O)P(=O)(O)O)[C@H](O)CO [example 1, N-Alendronyl-D-Glyceramide]",inhibition of PAP secretion,[1],significantly inhibited
same,effectiveness as a PAP inhibitor compared with tartrate alone,[1]; VCaP cell culture medium,as effective as tartrate alone
